{"source": "patent US20120040976A1", "about": "“SMALL MOLECULE IMMUNOMODULATORS FOR ALZHEIMER'S DISEASE” (HUMAN BIOMOLECULAR RESEARCH INSTITUTE, priority 2008, published 2012)", "key": {"[1]": {"assay": "Metabolic stability in human liver microsomes", "assay_type": "in vitro ADME", "conditions": "human, read-out: Half life, t1/2 HLM"}, "[2]": {"assay": "Metabolic stability in human S9 fraction", "assay_type": "in vitro ADME", "conditions": "read-out: Half life, t1/2 S9"}, "[3]": {"assay": "Chemical stability (H2O, pH 7.4)", "assay_type": "physicochemical"}, "Average permeability": {"assay": "Average permeability", "assay_type": "in vitro ADME", "conditions": "not told"}, "Average solubility": {"assay": "Average solubility", "assay_type": "physicochemical"}, "MGAT3 [4]": {"test_system": "MGAT3", "assay": "MGAT3 transcription ratio, AD patient / control PBMCs (qPCR)", "assay_type": "cell-based, human", "conditions": "Aβ stimulation", "method": "(§1) qPCR reactions of cultured monocyte cDNAs. One μL total cellular cDNA per reaction is used in triplicate reactions for each test gene, and for each culture treatment. SYBR-Green reactions were run on a Continuous Fluorescence real-time thermocycler and analyzed. Cycle threshold (Ct) values are recorded for each replicate reaction, and are then averaged and normalized against mean Ct values from one or more control genes. Fold-expression differences relative to untreated cells are determined using the 2^−ΔΔCt method as previously described. Data from the curcumin concentration range are plotted in order to determine EC50 values (concentrations producing one-half maximal stimulant activity), which are used for comparisons of potency between different compounds. Data are also evaluated for each gene with regard to sensitivity, maximally effective concentration of curcuminoid, response to Aβ, and overall magnitude of fold-expression changes.\nMGAT3 and/or TLR transcription were tested by qPCR in human monocyte cells treated with curcuminoids and compared the results to those treated with vehicle (Table 7). As discussed above, activation or up-regulation of macrophage MGAT3 or TLR's results in many functional outcomes, including the enhancement of […] and removal of Aβ, increased apoptosis, secretion of inflammatory cytokines, and other anti-AD antimicrobial activities. […] Thus, the ratio of MGAT3 or TLR transcription upon Aβ stimulation of human monocytes versus vehicle treatment provides an indicator and sensitive method to test the in vitro efficacy of drug candidates. […] The relative biological activity of the curcumin analogs in AD patient and control cells was ascertained in the in vitro Aβ assay described above (see Example 2)."}, "[5]": {"test_system": "cortical neurons in hAPP-transfected rat brain slices", "assay": "Rat brain slice AD model (hAPP-induced neurodegeneration)", "assay_type": "cell-based", "conditions": "rat brain slices transfected with EYFP and hAPP, three concentrations, 72 hrs (FIG. 8)", "description": "A rodent brain slice model for AD has been developed where the expression of human APP by particle-mediated gene transfer (“biolistics”) leads to typical signs of neuronal dystrophy, and ultimately the degeneration and clearance of the cell body with a few days. Brain slice preparations offer a powerful experimental system because they preserve the three-dimensional tissue architecture and local environment of neurons and glia far better than dissociated cell culture. As such, drug lead candidates that show neuroprotective activity in brain-tissue based disease models have a much increased ability to predict efficacy in vivo and ultimately in the clinic.\nPreparation of Brain Slice Explants. Cd Sprague-Dawley Rat Pups are Used at Postnatal day 10. Brains are cut into 250 μm coronal slices on a vibratome in chilled medium baths. Approximately 6 such slices can be cut from each rat brain; each are divided into “hemi-coronal” slices which are placed in individual 6-well transwell inserts. […]\nAssessment of cortical neuron health. […] Representative images are captured using a digital camera on a fluorescence microscope. After 3 days, cortical neurons are scored. […] Statistical significance of the neuronal counts in compound-treated slices is evaluated by ANOVA analysis, followed by post hoc Dunnett's analysis at the p≦0.05 confidence level. […]"}, "MGAT3 [6]": {"test_system": "MGAT3", "assay": "MGAT3 gene expression by qPCR in U-937 human monocytic cells treated with curcumins plus Aβ", "assay_type": "cell-based", "conditions": "human monocytic cells (U-937), curcumin plus Aβ", "method": "(§2) Cell culture conditions for monocytic cell lines. Human and mouse monocyte cell lines are grown in RPMI-1640 medium with 10% fetal bovine serum (FBS), plus glutamine and pen/strep. For treatment with compounds (curcuminoids+/−Aβ), replicate sets of 0.5-1.0 mL cultures containing 1-2×10^6 cells are set up in the wells of 48-well tissue culture plates. Both replicate sets have at least one control well receiving no added curcuminoid to provide baseline expression controls for untreated, and Aβ-only treated cells. Remaining wells receive curcuminoid in a range of 10-fold serial dilutions in DMSO, typically from […] Cultures are incubated for 20-24 hours (“overnight”) at 37° C. in atmosphere with 5% CO2. After one overnight, to one of replicate sets of cultures is added Aβ (1-42) peptide to a final concentration of 5 μg/mL.\n(§3) RNA isolation and cDNA synthesis. After the first overnight incubation in the presence of curcuminoid, cells from one replicate set of wells are collected by centifugation. RNAs are extracted from pelleted cells using miniprep column kits following manufacturer's protocol for animal cells. […] of total cellular RNA from each well is quantitated using a Nanodrop spectrophotometer, and first-strand total cDNA is prepared from 0.3-1.0 μg RNA by random-hexamer priming. Following the second 20 hr. incubation in the presence of Aβ, RNA extractions and cDNA synthesis are similarly performed.\nAssay development. Gene-specific mRNA levels are determined using a real-time thermocycler, and by normalizing to expression of one or more control genes. Assays for quantifying mRNA levels are based on gene sequences reported in NCBI Genbank. PCR oligonucleotide primers are selected spanning introns to minimize the opportunity for amplication from any contaminating genomic DNA in the RNA preps. Oligonucleotides are typically tested and used at a concentration of 200 nM in qPCR reactions containing SYBR dye. Control reactions include template from cDNA synthesis reactions either + or − reverse transcriptase (RT), as well as no-template controls (ntc). […] Melt curves based on incremental 0.5° C. increases are determined for new assays to test for uniformity of amplified products. […]\nqPCR reactions of cultured monocyte cDNAs. […] SYBR-Green reactions were run on a Continuous Fluorescence real-time thermocycler and analyzed. Cycle threshold (Ct) values are recorded for each replicate reaction, and are then averaged and normalized against mean Ct values from one or more control genes. Fold-expression differences relative to untreated cells are determined using the 2^−ΔΔCt method as previously described. […] Data are also evaluated for each gene with regard to sensitivity, maximally effective concentration of curcuminoid, response to Aβ, and overall magnitude of fold-expression changes. […]"}, "TLR2": {"test_system": "TLR2", "assay": "TLR2 gene expression by qPCR in U-937 human monocytic cells treated with curcumins plus Aβ", "assay_type": "cell-based", "method": "as §2, §3\n(§4) Assay development. Gene-specific mRNA levels are determined using a real-time thermocycler, and by normalizing to expression of one or more control genes. Assays for quantifying mRNA levels are based on gene sequences reported in NCBI Genbank. PCR oligonucleotide primers are selected spanning introns to minimize the opportunity for amplication from any contaminating genomic DNA in the RNA preps. Oligonucleotides are typically tested and used at a concentration of 200 nM in qPCR reactions containing SYBR dye. Control reactions include template from cDNA synthesis reactions either + or − reverse transcriptase (RT), as well as no-template controls (ntc). All reactions are performed in triplicate. Reactions are typically run with 40 cycles of 95° C. (10 sec) and 58° C. (30 sec). Melt curves based on incremental 0.5° C. increases are determined for new assays to test for uniformity of amplified products. Reaction conditions are modified as needed depending on initial test results. ‘Working’ assays are selected based on clear RNA-dependent amplification and absence of product in ‘ntc’ reactions. The following assay primers are used: […]\n(§5) qPCR reactions of cultured monocyte cDNAs. One μL total cellular cDNA per reaction is used in triplicate reactions for each test gene, and for each culture treatment. SYBR-Green reactions were run on a Continuous Fluorescence real-time thermocycler and analyzed. Cycle threshold (Ct) values are recorded for each replicate reaction, and are then averaged and normalized against mean Ct values from one or more control genes. Fold-expression differences relative to untreated cells are determined using the 2^−ΔΔCt method as previously described. […] Data are also evaluated for each gene with regard to sensitivity, maximally effective concentration of curcuminoid, response to Aβ, and overall magnitude of fold-expression changes. […]"}, "TLR3": {"test_system": "TLR3", "assay": "TLR3 gene expression by qPCR in U-937 human monocytic cells treated with curcumins plus Aβ", "assay_type": "cell-based", "method": "as §2, §3, §4, §1\n(§6) Data showing in vitro up-regulation of genes associated with Aβ phagocytosis in response to curcumins. Natural curcumins and synthetic analogs were tested in U-937 human monocyte cells in vitro for their ability to modulate expression of the genes MGAT3 and TLRs −2, −3, and −4. […]"}, "TLR4": {"test_system": "TLR4", "assay": "TLR4 gene expression by qPCR in U-937 human monocytic cells treated with curcumins plus Aβ", "assay_type": "cell-based", "method": "as §2, §3, §4, §5"}, "VDR": {"test_system": "VDR", "assay": "VDR gene expression by qPCR in U-937 human monocytic cells treated with curcumins plus Aβ", "assay_type": "cell-based", "method": "as §2, §3, §4, §1, §6"}, "COX-2": {"test_system": "COX-2", "assay": "Inhibition of SOD1-induced COX-2 expression in ALS PBMCs", "assay_type": "cell-based, human", "conditions": "aggregated wild-type or mutant SOD-1", "description": "(§7) More recently, it was shown that PBMCs isolated from ALS patients, and to a lesser extent from control subjects, strongly express COX-2 and other cytokines after stimulation with aggregated wild-type or mutant SOD-1. […] It was also shown that mutant SOD-1 induced polarization of ALS PBMCs to the Th17 type, but the induction was inhibited by 10."}, "ALS PBMCs": {"test_system": "ALS PBMCs", "assay": "Mutant SOD-1 induced polarization of ALS PBMCs to the Th17 type", "assay_type": "cell-based, human", "description": "as §7"}, "[7]": {"conditions": "human monocytic cells (U-937), curcumin plus Aβ"}}, "data": [{"smiles": "COc1cc(/C=C/C(=O)/C=C(O)/C=C/c2ccc(O)c(OC)c2)ccc1O", "note": "[Compound 2, 1,7-Bis(4-hydroxy-3-methoxyphenyl)-5-hydroxy-hepta-1,4,6-trien-3-one, reference compound]", "values": [{"measurement": "half-life", "setting": "[1]", "value": 40.8, "unit": "min"}, {"measurement": "half-life", "setting": "[2]", "value": 10.1, "unit": "min"}, {"measurement": "half-life", "setting": "[3]; water (aqueous solution), pH 7.4, read-out: Chemical stability t1/2 pH 7.4 (converted)", "value": 15.9, "unit": "min"}, {"measurement": "half-life", "setting": "[3]; water, H2O, read-out: Chemical stability t1/2 H2O (converted)", "value": 73.5, "unit": "min"}, {"measurement": "IC50", "setting": "Anti-oxidant activity", "value": 31.7, "unit": "µM"}, {"measurement": "Papp", "setting": "Average permeability", "value": "844 ± 24", "unit": "×10⁻⁶ cm/s"}, {"measurement": "solubility", "setting": "Average solubility", "value": 9.5, "unit": "µg/mL"}, {"measurement": "Relative ratio of MGAT3 transcription in AD patient / control PBMC's", "setting": "MGAT3 [4]", "value": "+ ((+) indicates a ratio of 1.0-1.5)"}, {"measurement": "Neuroprotective effect against hAPP-induced neurodegeneration", "setting": "[5]", "value": "prevent widespread neurodegeneration in a dose-dependent manner"}]}, {"smiles": "CN(C)c1ccc(/C=C/C(O)=C2\\CCC/C(=C\\c3ccc(N(C)C)cc3)C2=O)cc1", "note": "[Compound 10]", "values": [{"measurement": "Relative gene expression MGAT3, increased expression relative to control cells", "setting": "MGAT3 [6]", "value": "+++ ((+++) >40-fold)"}, {"measurement": "Concentration giving maximal TLR2 expression", "setting": "TLR2; U-937, in the presence of Aβ (FIG. 2)", "value": 1, "unit": "nM"}, {"measurement": "Relative gene expression TLR2, increased expression relative to control cells", "setting": "TLR2; [7]", "value": "++ ((++) >20-fold)"}, {"measurement": "TLR3 expression response (in words)", "setting": "TLR3; U-937, plus Aβ (FIG. 3)", "value": "considerably higher expression"}, {"measurement": "Relative gene expression TLR3, increased expression relative to control cells", "setting": "TLR3; [7]", "value": "+++ ((+++) >40-fold)"}, {"measurement": "Concentration giving maximal TLR4 response", "setting": "TLR4; U-937, plus Aβ (FIG. 4)", "value": "approximately 10 nM"}, {"measurement": "Relative gene expression TLR4, increased expression relative to control cells", "setting": "TLR4; [7]", "value": "+ ((+) <20-fold)"}, {"measurement": "VDR expression increase", "setting": "VDR; human monocytes, plus Aβ (FIG. 5)", "value": "10^3 fold"}, {"measurement": "Relative gene expression VDR, increased expression relative to control cells", "setting": "VDR; [7]", "value": "+++++ ((+++++) >1000-fold)"}, {"measurement": "half-life", "setting": "[1]", "value": 127, "unit": "min"}, {"measurement": "half-life", "setting": "[2]", "value": 311, "unit": "min"}, {"measurement": "Chemical stability H2O (stable/unstable)", "setting": "[3]; H2O", "value": "stable (stability half-lives greater than 5 hours)"}, {"measurement": "Stability compared with BDC (in words)", "setting": "[3]; chemical and metabolic stability", "value": "markedly greater stability than BDC"}, {"measurement": "Chemical stability pH 7.4 (stable/unstable)", "setting": "[3]; pH 7.4", "value": "stable (stability half-lives greater than 5 hours)"}, {"measurement": "IC50", "setting": "Anti-oxidant activity", "value": 155, "unit": "µM"}, {"measurement": "Induction of COX-2 by SOD-1 after pretreatment", "setting": "COX-2", "value": "blocked"}, {"measurement": "Induction of Th17 polarization by mutant SOD-1", "setting": "ALS PBMCs", "value": "inhibited"}]}]}
